How the values were obtained:
recombinant hMAO-B = target: T1, recombinant hMAO-B (Homo sapiens, UniProt P27338); experiment: Time-dependent inhibition study on hMAO-B; format: biochemical; conditions: pre-incubation 0 to about 20 min, 5 and 20 µM
T1 construct: purchased Fluka-Sigma-Aldrich s.r.l; (Italy); host or cells: Baculovirus infected BT1 cells
T1 sequence (P27338 1-520): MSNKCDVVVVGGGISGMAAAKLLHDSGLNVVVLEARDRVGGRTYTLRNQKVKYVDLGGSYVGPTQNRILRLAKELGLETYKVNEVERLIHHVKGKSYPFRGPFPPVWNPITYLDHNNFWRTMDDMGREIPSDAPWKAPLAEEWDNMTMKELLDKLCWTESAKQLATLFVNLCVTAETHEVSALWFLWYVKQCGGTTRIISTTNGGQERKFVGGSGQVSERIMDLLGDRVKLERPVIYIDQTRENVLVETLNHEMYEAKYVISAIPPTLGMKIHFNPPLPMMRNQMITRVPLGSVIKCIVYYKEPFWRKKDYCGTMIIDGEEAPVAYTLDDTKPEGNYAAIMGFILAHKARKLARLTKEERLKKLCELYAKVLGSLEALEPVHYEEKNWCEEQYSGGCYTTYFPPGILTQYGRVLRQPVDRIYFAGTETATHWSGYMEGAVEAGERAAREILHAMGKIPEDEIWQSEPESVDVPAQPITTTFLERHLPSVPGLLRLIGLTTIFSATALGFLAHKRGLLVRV
Procedure: Time-dependent inhibition studies. The time-dependent inactivation by 2 was performed as previously reported. In detail, recombinant hMAO-B was pre-incubated in the K/Pi buffer for periods from 0 to about 20 min, at 37 °C in the absence (control sample) and in the presence of compound 2 (5 and 20 µM). After various pre-incubation times (at least 5 times after mixing of enzyme and inhibitor), the residual enzyme activity was determined: an aliquot of sample was withdrawn and diluted in the assay buffer (50-fold dilution) and then, the substrate was added under a “saturating” condition (Kyn = 300 µM).

[1] = system: SH-SY5Y human neuroblastoma cells; experiment: Cell viability, MTT assay; format: cell-based; conditions: 0.5 to 50 μM, 24 h
Procedure: To define the concentration range to use in the in vitro experimental settings, the cytotoxicity of compounds 1–5 was evaluated in SH-SY5Y human neuroblastoma cells, in comparison with CAPE, the reference compound for Nrf2 activation (Figure 5). Cells were treated with compounds at concentrations ranging from 0.5 to 50 μM for 24 h and cell viability was evaluated via MTT assay. All compounds were well tolerated at each concentration, resulting in no or very low reduction in cell viability.
MTT assay, based on the mitochondrial dehydrogenase activity that reduces 3-(4,5-dimethylthiazol-2-yl)-2,5-diphenyl-tetrazolium bromide (MTT, Sigma, St Louis, MO, USA) is one of the standard assays used to measure the cellular metabolic activity as an indicator of cell viability, proliferation and cytotoxicity in a quantitative colorimetric assay. At day 0, SH-SY5Y cells were plated at a density of 2.5 × 10^4 viable cells per well in 96-well plates. After treatment, according to the experimental setting, cells were exposed to an MTT solution in serum-free medium (1 mg/mL). Following 4 h of incubation with MTT and treatment with SDS for 24 h, cell viability reduction was quantified by using a Synergy HT multidetection microplate reader (Bio-Tek).

O=C(/C=C/c1ccc(O)c(O)c1)Oc1ccc(CC2SC(=O)NC2=O)cc1 (stereo not drawn) [Compound 2, 4-((2,4-Dioxothiazolidin-5-yl)methyl)phenyl (E)-3-(3,4-Dihydroxyphenyl)acrylate]
time-dependent inhibition / inactivation of hMAO-B (recombinant hMAO-B): no inactivation and no time-dependent inhibition
cell viability / cytotoxicity [1]: not cytotoxic
melting point: 150 to 151 °C

Reference: article PMC10650714, “Double Attack to Oxidative Stress in Neurodegenerative Disorders: MAO-B and Nrf2 as Elected Targets” (Molecules, 2023)
